Measured values from article PMC11219871, “Epigenetic-based differentiation therapy for Acute Myeloid Leukemia” (Nature Communications, 2024).
Where “and” joins values, the source holds several entries; their conditions need not be identical. Identical values can stand only once.

Legend:
MV4-11 = test: Differentiation-apoptosis assay, CD11b / annexin-V / Sytox Green / myeloid markers flow cytometry; format: cell-based, human; parameters: Cell viability (%): concentration or dose not given beside the values; CD11b levels: unit not given here
In short: (§1)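 Cells washed in PBS, resuspended at 1 × 10^6 cells/mL in binding buffer and stained with APC-CD11b and FITC annexin-V for 15 min at room temperature in the dark, then read by flow cytometry. Other runs used a CD13/HLA-DR/CD14 antibody panel, 30 min staining, then red-cell lysis and washes.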

MOLM-13 = test: as above; format: cell-based, human; parameters: Cell viability (%): concentration or dose not given beside the values; CD11b levels: unit not given here
In short: as §1

GF-D8 = test: Cell proliferation assay: GI50; format: cell-based
Method: (§2) Cell proliferation was analyzed using the CellTiter 96 Aqueous One Solution Cell Proliferation Assay (Promega, Madison, WI). This is a colorimetric method for determining the number of viable cells in proliferation. For the assay, suspension cells were cultured in triplicate at a density of 1 × 10^6 cells/mL in 96-well plates (100.000 cells/well, 100 µL/well), using only the 60 inner wells to avoid any border effects. After 48 h of treatment with different doses of each compound (0, 0.001, 0.01, 0.1, 0.2, 0.4, 0.6, 0.8, 1, 2, 3, 4, 5 and 10 µM), the plates were centrifuged at 800 g for 10 min followed by removal of the medium. Then, the cells were incubated with 100 μL/well of medium and 20 μL/well of CellTiter 96 Aqueous One Solution reagent for 1–3 h. The absorbance was recorded at 490 and 650 nm as reference wavelengths using 96-well plate readers until the absorbance of the control cells without treatment was approximately 0.8 AU. The background absorbance was measured in wells with only cell line medium and solution reagent. First, the average of the absorbance from the control wells was subtracted from all other absorbance values. Data were calculated as the percentage of total absorbance of treated cells/absorbance of non-treated cells. The GI50 values of the different compounds were determined using non-linear regression plots made with GraphPad Prism v5 software.

THP-1 = test: Cell proliferation assay: GI50; format: cell-based
Method: as §2

OCI-AML2 = test: Cell proliferation assay: GI50; format: cell-based
Method: as §2

NB-4 = test: Cell proliferation assay: GI50; format: cell-based
Method: as §2

ML-2 = test: Differentiation-apoptosis assay, CD11b / annexin-V / Sytox Green / myeloid markers flow cytometry; format: cell-based, human; parameters: Cell viability: concentration or dose not given beside the values; CD11b levels: unit not given here
In short: as §1

[1] = MV4-11, 48 h treatment, replicates 1-3 (Suppl. Fig. 5A)
[2] = MV4-11, daily treatment, time 0 days
[3] = MV4-11, daily treatment, time 2 days
[4] = MV4-11, daily treatment, time 4 days
[5] = MV4-11, daily treatment, time 6 days
[6] = MOLM-13, 48 h treatment, replicates 1-3 (Suppl. Fig. 5A)
[7] = MOLM-13, daily treatment, time 0 days
[8] = MOLM-13, daily treatment, time 2 days
[9] = MOLM-13, daily treatment, time 4 days
[10] = MOLM-13, daily treatment, time 6 days
[11] = MOLM-13, daily treatment, time 8 days
[12] = ML-2, 48 h, replicates (Fig 4A)
[13] = ML-2, daily treatment, time 0 days, replicates 1-3 (Figure 2B)
[14] = ML-2, daily treatment, time 2 days, replicates 1-3 (Figure 2B)
[15] = ML-2, daily treatment, time 4 days, replicates 1-3 (Figure 2B)
[16] = ML-2, daily treatment, time 6 days, replicates 1-3 (Figure 2B)
[17] = ML-2, daily treatment, time 8 days, replicates 1-3 (Figure 2B)

COc1cc2nc(-c3cc(C)oc3C)cc(NCC3CCN(c4ncc(C(=O)NO)cn4)CC3)c2cc1OC [CM-1758, 2-[4-[[[2-(2,5-dimethyl-3-furyl)-6,7-dimethoxy-4-quinolyl]amino]methyl] -1-piperidyl]pyrimidine-5-carbohydroxamic acid]
CD11b (%) (MV4-11; MV4-11, 48 h): 57.9% | CD13 (%) (MV4-11; MV4-11, 48 h): 98.1% | CD14 (%) (MV4-11; MV4-11, 48 h): 56.2% | HLA-DR (%) (MV4-11; MV4-11, 48 h): 38.4% | CD11b (%) (MV4-11; [1]): 47.1% and 53.2% and 55.4% | Cell viability (%) (MV4-11; [1]): 80.4% and 85.9% and 86.75% | differentiation level (CD11b) (MV4-11; MV4-11, after 6–8 days of treatment): ~90% | CD11b levels (MV4-11; MV4-11, daily treatment for 48 h, replicates 1-3 (Suppl. Fig. 9A)): 37.8 and 40.7 and 46.2 | Annexin-V (%) (MV4-11; [2]): 5.32% and 4.14% and 5.2% | CD11b (%) (MV4-11; [2]): 11.1% and 6.62% and 5.25% | Annexin-V (%) (MV4-11; [3]): 7.65% and 8.98% and 10.24% | CD11b (%) (MV4-11; [3]): 28.2% and 20.4% and 30.4% | Annexin-V (%) (MV4-11; [4]): 26.3% and 27.9% and 28.6% | CD11b (%) (MV4-11; [4]): 44.3% and 46.2% and 46.6% | Annexin-V (%) (MV4-11; [5]): 19.6% and 21.2% and 20.7% | CD11b (%) (MV4-11; [5]): 76% and 75.1% and 74.8% | CD11b (%) (MV4-11; MV4-11 cell line, replicates 1-3 (Figure 2A)): 38.46% and 40.4% and 45.7% | CD11b (%) (MOLM-13; MOLM-13, 48 h): 93.0% | CD13 (%) (MOLM-13; MOLM-13, 48 h): 54.8% | CD14 (%) (MOLM-13; MOLM-13, 48 h): 35.6% | HLA-DR (%) (MOLM-13; MOLM-13, 48 h): 27.9% | CD11b (%) (MOLM-13; [6]): 93.5% and 87.6% and 86.0% | Cell viability (%) (MOLM-13; [6]): 71.1% and 73.4% and 72.7% | differentiation level (CD11b) (MOLM-13; MOLM-13, after 6–8 days of treatment): ~90% | CD11b levels (MOLM-13; MOLM-13, daily treatment for 48 h, replicates 1-3 (Suppl. Fig. 9A)): 61.5 and 58.4 and 65.3 | Annexin-V (%) (MOLM-13; [7]): 4.46% and 6.55% and 4.89% | CD11b (%) (MOLM-13; [7]): 6.62% and 4.5% and 6.9% | Annexin-V (%) (MOLM-13; [8]): 11.4% and 10.2% and 9.87% | CD11b (%) (MOLM-13; [8]): 73% and 68.5% and 65.7% | Annexin-V (%) (MOLM-13; [9]): 23.3% and 19.7% and 17.2% | CD11b (%) (MOLM-13; [9]): 83.3% and 80.2% and 78.3% | Annexin-V (%) (MOLM-13; [10]): 23.9% and 24.2% and 20.6% | CD11b (%) (MOLM-13; [10]): 89.9% and 85.1% and 83.1% | Annexin-V (%) (MOLM-13; [11]): 29.4% and 27.5% and 25.4% | CD11b (%) (MOLM-13; [11]): 91.9% and 90.1% and 92.4% | CD11b (%) (MOLM-13; MOLM-13 cell line, replicates 1-3 (Figure 2A)): 70.54% and 69.2% and 63% | GI50 (GF-D8; 48 h, GF-D8, 48 h): > 10000 nM | GI50 (GF-D8; GF-D8, replicates 1-3): > 10000 nM | GI50 (THP-1; Homo sapiens, THP-1, 48 h): > 10000 nM | GI50 (THP-1; Homo sapiens, THP-1, replicates 1-3): > 10000 nM | GI50 (THP-1; THP-1, replicates 1-3): > 10000 nM | GI50 (OCI-AML2; Homo sapiens, OCI-AML2, 48 h): 774 nM | GI50 (OCI-AML2; Homo sapiens, OCI-AML2, OCI-AML2, replicates 1-3): 954 nM | GI50 (OCI-AML2; OCI-AML2, replicates 1-3): 712 nM and 655 nM | GI50 (NB-4; Homo sapiens, NB-4, 48 h): 857 nM | GI50 (NB-4; Homo sapiens, NB-4, NB-4, replicates 1-3): 987 nM | GI50 (NB-4; NB-4, replicates 1-3): 714 nM and 870 nM | percentage of CD11b (ML-2; ML-2, 260 nM CM-444 or 210 nM CM-1758 daily for 4 days, before injection): > 90% | CD11b (%) (ML-2; ML-2, 48 h): 75.6% | CD13 (%) (ML-2; ML-2, 48 h): 98.6% | CD14 (%) (ML-2; ML-2, 48 h): 2.86% | HLA-DR (%) (ML-2; ML-2, 48 h): 17.4% | CD11b (ML-2; [12]): 64.3% and 61.7% and 64.6% | Cell viability (ML-2; [12]): 89.3% and 72.6% and 87.1% | differentiation level (CD11b) (ML-2; ML-2, after 6–8 days of treatment): ~90% | Annexin-V (%) (ML-2; [13]): 0% and 1.81% and 2.3% | CD11b (%) (ML-2; [13]): 9.3% and 9.32% and 7.24% | Annexin-V (%) (ML-2; [14]): 0% and 5.74% and 8.47% | CD11b (%) (ML-2; [14]): 46.98% and 27.2% and 35.8% | Annexin-V (%) (ML-2; [15]): 10.26% and 4.49% and 5.25% | CD11b (%) (ML-2; [15]): 56.51% and 40.8% and 55.87% | Annexin-V (%) (ML-2; [16]): 4.87% and 1.99% and 9.87% | CD11b (%) (ML-2; [16]): 77.98% and 70% and 78.6% | Annexin-V (%) (ML-2; [17]): 5.37% and 6.87% and 10.45% | CD11b (%) (ML-2; [17]): 88.06% and 83.2% and 89.7% | CD11b (%) (ML-2; ML-2 cell line, replicates 1-3 (Figure 2A)): 53.45% and 67.6% and 52.5% | CD11b levels (ML-2; ML-2 treated daily for 48 h, replicates (Fig 6E)): 45.9 and 51.7 and 43.7
